Patent publication US10315990B2, “Isothiocyanate compounds and isothiocyanate XPO1 protein inhibitor drugs thereof” (DRIVINGFORCE THERAPEUTICS Co., Ltd., priority 2015, dated 2019)
Where two headings read alike, the source gives them in different places.

What was measured:
[1] = Safety testing via oral administration, 6 weeks; type: in vivo; details: intragastric, 6 weeks continuously, male and female SD rats
Procedure: The compound solution was intragastrically administrated to 6-week-old male and female SD rats (I-01: 500 mg/kg/day; I-03: 500 mg/kg/day; I-04: 500 mg/kg/day, I-06: 500 mg/kg/day, I-11: 300 mg/kg/day) for 6 weeks continuously (n=10 per group).

HMLE-Snail cell line = assay: Formation of HMLE-Snail cell line spheroids; type: cell-based; details: read-out: Colony (%): cell colony number of drug-treated group/cell colony number of control group × 100%
Procedure: HMLE-Snail cell line is one of most classic cell models for studying tumor cell metastasis and EMT path. HMLE-Snail cell line highly expresses Snail protein, and thus one of most remarkable features thereof is that it has spherical cellular morphology (spheroid). […] The HMLE-Snail cell line used in the present invention was donated by Dr. Robert Weinberg from America Massachusetts Whitehead Institute. HMLE-Snail cells were suspended in a liquid culture medium (in which B-27 and N-2 were added, purchased from America Invitrogen Corporation) containing DMEM/F12 in a ratio of 1:1, in an amount of 1.0×10^3 cells/ml, and cultured in an ultra low attachment culture plate so as to allow spheroids to be formed. Seven days later, spheroids were collected by centrifugation, and counted. […] Docetaxel is a common clinical chemotherapy drug.

XPO1 protein = target: T1, XPO1 protein (Homo sapiens, UniProt O14980); assay: Inhibitory activity for XPO1 protein (NES-GFP nuclear export, laser confocal microscope); type: cell-based; details: for Activity (μM): inhibitory activity for XPO1 protein (full inhibitory concentration): NES-GFP nuclear export, cells treated for 2 hours
T1 construct: Sixteen hours later, NES-GFP plasmid was transfected with liposome; endogenous in cells
From the text: NES (nuclear export signal) is a nuclear export signal peptide recognized by XPO1 protein. XPO1 recognizes NES sequence peptide segment of biomacromolecule and exports the biomacromolecule out of nucleus. NES-GFP protein is obtained by co-expressing green fluorescence protein GFP and NES sequence peptide segment by using a eukaryotic expression plasmid. Inhibitory activity of the representative compound for XPO1 protein can be assessed by detecting influence of the compound on NES-GFP cell localization.
The cells were digested with trypsin, counted, and inoculated on 96-well plate in an amount of 1.5×10^4 cells per well. Sixteen hours later, NES-GFP plasmid was transfected with liposome.

Panc-1 = assay: Inhibitory activity for other high metastasis type cancer cell line (MTT or CCK-8); type: cell-based; details: Homo sapiens
IL-6 = assay: Serum IL-6 level of IBD animal model (ELISA); type: in vivo, SD rats; details: 80 mg/kg, three days after making the TNBS model
From the text: (§1) Inflammatory bowel disease is an autoimmune disease. […] The therapeutic effect of the representative compound for the immune system disease or inflammation can be assessed by detecting change in levels of some important cytokines such as TNF-α and IL-6 at downstream of the signal path.

KYSE-70 = assay: Inhibitory activity for other high metastasis type cancer cell line (MTT or CCK-8); type: cell-based; details: Homo sapiens
CaSki = assay: as above; type: cell-based; details: Homo sapiens, Ca-Ski
786-O = assay: as above; type: cell-based; details: Homo sapiens
TNF-α = assay: Serum TNF-α level of IBD animal model (ELISA); type: in vivo, SD rats; details: 80 mg/kg, three days after making the TNBS model
From the text: as §1

Saos-2 = assay: Inhibitory activity for other high metastasis type cancer cell line (MTT or CCK-8); type: cell-based; details: Homo sapiens
IBD animal model = assay: Macroscopic pathological changes of IBD animal model (enteroclysis with TNBS); type: in vivo, SD rats; details: TNBS rats; for Macroscopic pathological score: 80 mg/kg intragastrically daily, score 0-5, 10 animals
Procedure: Eight-week-old male SD rats (10 rats per group) were fasted for 24 hours and anaesthetized with diethyl ether. 50% ethanol and TNBS (2,4,6-trinitrobenzenesulfonic acid) were mixed to prepare a solution. In the IBD model group, a tube made of vinyl resin was inserted 5 cm from anus, and enteroclysis was performed with the TNBS solution in a dose of 100 mg/kg. The rats were hung upside down 30 seconds later after the enteroclysis to ensure no leakage of the TNBS solution. In the control group, the TNBS solution was replaced with normal saline with which enteroclysis was performed. Seven days later after the enteroclysis with the TNBS solution or normal saline, animals were sacrificed and dissected. […] Two weeks later after treated with the drugs, the animals were sacrificed and dissected, and large intestine thereof was taken out and fixed in 4% formalin solution for 30 minutes. The large intestine of the animals was cut lengthwise from the mesentery side to take photos for rectum portion and measure the weight of rectum. Based on the macroscopic observation and judgment score (Table 2-1), ulceration and bleeding states of rectum portion were scored according to the macroscopic observation scoring standard.

A2780 = assay: Inhibitory activity for high metastasis type ovarian cancer cell line (MTT or CCK-8); type: cell-based; details: Homo sapiens
Procedure: (§2) The two cell lines were inoculated on 96-well cell culture plate in an amount of 6000 cells per well and cultured at 37° C. for 24 hours, and then treated solely with the representative compound added therein and cultured. Seventy-two hours later, MTT or CCK-8 method was used to detect the inhibitory activity of the representative compound for the high metastasis type ovarian cancer cell lines.

HO-8910 = assay: as above; type: cell-based
Procedure: as §2

NCI-H1975 = assay: cells; type: cell-based; details: Homo sapiens, NCI-H1975, 72 h
Procedure: (§3) NCI-H1975 and NCI-H1650 are two typical high metastasis type lung cancer cell lines. The therapeutic effect of the representative compound for the metastasis type lung cancers can be preliminarily assessed by detecting the inhibitory activity of the representative compound for the two cell lines. The lung cancer cell line was inoculated on 96-well cell culture plate in an amount of 6000 cells per well and cultured at 37° C. for 24 hours, and then treated solely with the compound added therein and cultured. Seventy-two hours later, MTT or CCK-8 method was used to detect the inhibitory activity of the compound for the two lung cancer cell lines.

NCI-H1650 = assay: cells; type: cell-based; details: Homo sapiens, NCI-H1650, 72 h
Procedure: as §3

Raji = assay: Inhibitory activity for high metastasis type lymphoma cell line (MTT or CCK-8); type: cell-based; details: Homo sapiens, 72 hours, read-out: IC50
Procedure: (§4) Jeko-1, Raji and U2932 are three typical high metastasis type lymphoma cell lines. The lymphoma cell line was inoculated on 96-well cell culture plate in an amount of 6000 cells per well and cultured at 37° C. for 24 hours, and then treated solely with the compound added therein and cultured. Seventy-two hours later, MTT or CCK-8 method was used to detect the inhibitory activity of the compound for the two high metastasis type lymphoma cell lines.

Jeko-1 = assay: as above; type: cell-based; details: Homo sapiens; Jeko-1, 72 hours; read-out: IC50
Procedure: as §4

U2932 = assay: as above; type: cell-based; details: Homo sapiens; U2932, 72 hours; read-out: IC50
Procedure: as §4

[2] = test system: SK-OV3 (high metastasis type ovarian cancer cell line); assay: Ovarian cancer intraperitoneal metastasis animal model; type: in vivo, nudemice (BALB/c-nu/nu); details: Mus musculus, SK-OV-3, ip
Procedure: The ovarian cancer intraperitoneal metastasis animal model is one of most classic animal models for studying anti-ovarian cancer metastasis drug. Sixty 5 to 6-week-old female nudemice with similar weight (BALB/c-nu/nu) were chosen. SK-OV3 (high metastasis type ovarian cancer cell line) stably expressing green fluorescence protein was screened, and prepared into a cell suspension of 2×10^6 cells/100 μl with serum-free PRMI1640 medium. […] Three weeks later, the cancer was detected with a small animal in vivo imaging apparatus (Xenogen, School of Medicine, Shanghai Jiaotong University) and photos thereof were taken. […] In the table, T represents the drug-treated group, and C represents the blank control group. T/C is (V/V0 of compound-treated group)/(V/V0 of blank control group) in which V represents the cancer volume of mouse on the day the detection was performed, and V0 represents the cancer volume of mouse on the day the administration begun.

SW620 = assay: Inhibitory activity for high metastasis type colon cancer cell line (MTT or CCK-8); type: cell-based; details: Homo sapiens, SW-620; SW620, 72 hours; read-out: IC50
Procedure: as §4, with “SW620” for “Jeko-1, Raji”, “HCT116” for “U2932”, “two” for “three”, “colon cancer” for “lymphoma”

HCT116 = assay: as above; type: cell-based; details: Homo sapiens, HCT-116; HCT116, 72 hours; read-out: IC50
Procedure: as §4, with “SW620” for “Jeko-1, Raji”, “HCT116” for “U2932”, “two” for “three”, “colon cancer” for “lymphoma”

[3] = 10 μg/ml, treated for 24 hours, control = 100

T1 sequence (O14980 whole entry, species assumed): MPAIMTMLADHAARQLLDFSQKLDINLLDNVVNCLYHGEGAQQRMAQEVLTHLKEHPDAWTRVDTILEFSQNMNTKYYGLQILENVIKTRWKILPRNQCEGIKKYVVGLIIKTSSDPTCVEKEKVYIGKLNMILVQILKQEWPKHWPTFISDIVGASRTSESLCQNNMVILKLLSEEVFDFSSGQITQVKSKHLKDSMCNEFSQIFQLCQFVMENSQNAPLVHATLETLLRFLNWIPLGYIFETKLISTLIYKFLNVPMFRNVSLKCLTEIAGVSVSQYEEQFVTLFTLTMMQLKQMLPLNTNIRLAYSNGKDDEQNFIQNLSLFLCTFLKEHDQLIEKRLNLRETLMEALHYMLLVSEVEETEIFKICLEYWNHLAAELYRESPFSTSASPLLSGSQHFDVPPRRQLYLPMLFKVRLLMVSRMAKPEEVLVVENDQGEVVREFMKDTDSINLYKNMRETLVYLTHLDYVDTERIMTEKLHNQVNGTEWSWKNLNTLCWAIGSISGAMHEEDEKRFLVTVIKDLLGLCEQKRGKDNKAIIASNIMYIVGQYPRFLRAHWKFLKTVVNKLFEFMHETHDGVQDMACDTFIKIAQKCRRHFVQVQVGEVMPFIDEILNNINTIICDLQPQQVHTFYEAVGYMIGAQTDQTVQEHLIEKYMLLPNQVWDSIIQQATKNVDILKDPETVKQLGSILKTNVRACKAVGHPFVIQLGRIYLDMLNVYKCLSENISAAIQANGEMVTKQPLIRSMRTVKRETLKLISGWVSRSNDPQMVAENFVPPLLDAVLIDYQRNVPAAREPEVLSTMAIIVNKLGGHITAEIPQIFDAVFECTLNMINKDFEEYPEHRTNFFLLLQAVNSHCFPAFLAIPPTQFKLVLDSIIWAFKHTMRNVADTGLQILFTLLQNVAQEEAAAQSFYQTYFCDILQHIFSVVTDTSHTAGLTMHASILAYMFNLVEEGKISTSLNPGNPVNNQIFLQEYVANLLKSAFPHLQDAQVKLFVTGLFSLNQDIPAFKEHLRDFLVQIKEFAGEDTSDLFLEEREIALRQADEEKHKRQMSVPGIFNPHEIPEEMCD

Row | SMILES | activity at 10 µg/mL (HMLE-Snail cell line; [3]) [%] | Activity (μM): inhibitory activity for XPO1 protein (full inhibitory concentration) (XPO1 protein) [µM] | Serum IL-6 level, Animal-1 (IL-6) [ng/mL] | Serum IL-6 level, Animal-2 (IL-6) [ng/mL] | Serum IL-6 level, Animal-3 (IL-6) [ng/mL] | Serum TNF-α level, Animal-1 (TNF-α) [ng/mL] | Serum TNF-α level, Animal-2 (TNF-α) [ng/mL] | Serum TNF-α level, Animal-3 (TNF-α) [ng/mL] | Macroscopic pathological score (IBD animal model) | other results
1 | [O-][S+](/C=C/CCN=C=S)c1ccc2ccccc2c1 (stereo not drawn) [Compound I-11] | 30 to 35 | 1 to 5 | – | – | – | – | – | – | – | nontoxic dose [1]: at least 300 mg/kg/day
2 | [O-][S+](/C=C/CCN=C=S)c1ccc(Cl)c(C(F)(F)F)c1 (stereo not drawn) [Compound I-03] | 25 to 30 | 0.5 to 1 | 0.9 | 0.8 | 0.7 | 1.3 | 1.1 | 0.7 | – | IC50 (Panc-1; Panc-1, 72 hours, read-out: IC50): 1.6 µM; IC50 (KYSE-70; KYSE-70, 72 hours, read-out: IC50): 1.8 µM; IC50 (CaSki; CaSki, 72 hours, read-out: IC50): 1.5 µM; IC50 (786-O; 786-0, 786-O, 72 hours, read-out: IC50): 1.3 µM; IC50 (Saos-2; Saos-2, 72 hours, read-out: IC50): 2.6 µM
3 | [O-][S+](/C=C/CCN=C=S)c1ccccc1 (stereo not drawn) [Compound I-01] | – | 1 to 5 | 1.5 | 1.3 | 1.2 | 1.5 | 1.2 | 1.2 | 2.5 ± 0.1 | IC50 (Panc-1; PANC-1, 72 h): 3.3 µM; IC50 (KYSE-70; KYSE-70, 72 h): 2.7 µM; IC50 (A2780; A2780, 72 h): 2.5 µM; IC50 (HO-8910; HO-8910, 72 h): 1.9 µM; IC50 (CaSki; 72 h): 2.1 µM; IC50 (786-O; 786-0, 72 h): 1 µM; IC50 (NCI-H1975): 3.1 µM; IC50 (NCI-H1650): 2.7 µM; activity at 10 µg/mL (HMLE-Snail cell line; 24 h): 35 to 40%; NES-GFP cell localization (FIG. 1) (XPO1 protein; laser confocal micrograph): most of NES-GFP protein emitting green fluorescence is congregated in nucleus; IC50 (Saos-2; SAOS-2, 72 h): 3.2 µM
4 | S=C=NCCc1ccccc1 [PEITC, phenylethylisothiocyanate, reference compound] | 85 | 30 | 2.2 | 2.1 | 2.1 | 2.0 | 1.9 | 2.0 | 3.5 ± 0.3 | colon tissue bleeding and ulceration phenomena (in words) (IBD animal model; 80 mg/kg): small relief extent; IC50 (A2780; A2780, 72 hours, read-out: IC50): 17.6 µM; IC50 (HO-8910; HO-8910, 72 hours, read-out: IC50): 15.5 µM; IC50 (Raji): 9.3 µM; IC50 (Jeko-1): 8.7 µM; IC50 (U2932): 11.7 µM; response vs control in vivo at 80 mg/kg ([2]; 504 h, 80 mg/kg intraperitoneal injection once a day for 3 weeks, read-out: T/C (%)): 71%; mortality at 80 mg/kg ([2]; 720 h, 80 mg/kg, six mice per group, read-out: Mortality (within 30 days) (converted)): 0%; IC50 (SW620): 10.2 µM; IC50 (HCT116): 8.4 µM
